Converted amounts (≈) assume the structure as drawn.
Key:
Assay type in all cases: functional
Shigella dysenteriae = experiment: Antibacterial activity against Shigella dysenteriae by micro broth dilution method
Staphylococcus aureus [1] = experiment: Antibacterial activity against methicillin-resistant Staphylococcus aureus N315 by micro broth dilution method
Staphylococcus aureus [2] = experiment: Antibacterial activity against Staphylococcus aureus ATCC 25923 by micro broth dilution method
Micrococcus luteus = experiment: Antibacterial activity against Micrococcus luteus ATCC 4698 by micro broth dilution method; settings: NCTC 2665
Bacillus spizizenii = experiment: Antibacterial activity against Bacillus subtilis ATCC 6633 by micro broth dilution method
Escherichia coli [3] = experiment: Antibacterial activity against Escherichia coli DH52 by micro broth dilution method
Escherichia coli [4] = experiment: Antibacterial activity against Escherichia coli JM109 by micro broth dilution method
Pseudomonas aeruginosa = experiment: Antibacterial activity against Pseudomonas aeruginosa ATCC 27853 by micro broth dilution method
[5] = Antibacterial activity against Bacillus proteus ATCC 13315 by micro broth dilution method
Salmonella enterica = experiment: Antibacterial activity against Salmonella enterica ATCC 14028 by micro broth dilution method
[6] = Antifungal activity against Candida mycoderma ATCC 9888 after 24 hrs by micro broth dilution method; settings: Candida vini
Cyberlindnera jadinii = experiment: Antifungal activity against Candida utilis ATCC 9950 after 24 hrs by micro broth dilution method; settings: Williopsis jadinii, ATCC 9950, 24 h
Aspergillus flavus = experiment: Antifungal activity against Aspergillus flavus ATCC 204304 after 24 hrs by micro broth dilution method; settings: ATCC 204304, 24 h
Saccharomyces cerevisiae = experiment: Antifungal activity against Saccharomyces cerevisiae ATCC 9763 after 24 hrs by micro broth dilution method; settings: ATCC 9763, 24 h
Candida albicans = experiment: Antifungal activity against Candida albicans ATCC 10231 after 24 hrs by micro broth dilution method; settings: ATCC 10231, 24 h

With `CCn1cc(C(=O)O)c(=O)c2cc(F)c(N3CCN(Cc4nc5ccc(Br)cc5[nH]4)CC3)cc21` the MIC (Shigella dysenteriae) was 16 µg/mL (≈ 30.3 µM), the MIC (Staphylococcus aureus [1]) was 32 µg/mL (≈ 60.6 µM) and the MIC (Staphylococcus aureus [2]) was 64 µg/mL (≈ 121 µM). It also gave an MIC (Micrococcus luteus) of 2 µg/mL (≈ 3.79 µM), an MIC (Bacillus spizizenii) of 8 µg/mL (≈ 15.1 µM) and an MIC (Escherichia coli [3]) of 16 µg/mL (≈ 30.3 µM). For the same molecule, the MIC (Escherichia coli [4]) was 16 µg/mL (≈ 30.3 µM), the MIC (Pseudomonas aeruginosa) was 2 µg/mL (≈ 3.79 µM) and the MIC [5] was 4 µg/mL (≈ 7.57 µM). For the same molecule, the MIC (Salmonella enterica) was 8 µg/mL (≈ 15.1 µM), the MIC80 [6] was 32 µg/mL (≈ 60.6 µM) and the MIC80 (Cyberlindnera jadinii) was 16 µg/mL (≈ 30.3 µM). For the same molecule, the MIC80 (Aspergillus flavus) was 4 µg/mL (≈ 7.57 µM), the MIC80 (Saccharomyces cerevisiae) was 16 µg/mL (≈ 30.3 µM) and the MIC80 (Candida albicans) was 64 µg/mL (≈ 121 µM).
Work on `O=C(O)c1cn(C2CC2)c2cc(N3CCN(Cc4nc5ccc([N+](=O)[O-])cc5[nH]4)CC3)c(F)cc2c1=O` yielded an MIC (Shigella dysenteriae) of 4 µg/mL (≈ 7.9 µM), an MIC (Staphylococcus aureus [1]) of 2 µg/mL (≈ 3.95 µM) and an MIC (Staphylococcus aureus [2]) of 16 µg/mL (≈ 31.6 µM). For the same molecule, the MIC (Micrococcus luteus) was 8 µg/mL (≈ 15.8 µM), the MIC (Bacillus spizizenii) was 8 µg/mL (≈ 15.8 µM) and the MIC (Escherichia coli [3]) was 4 µg/mL (≈ 7.9 µM). It also gave an MIC (Escherichia coli [4]) of 8 µg/mL (≈ 15.8 µM), an MIC (Pseudomonas aeruginosa) of 0.5 µg/mL (≈ 0.987 µM) and an MIC [5] of 4 µg/mL (≈ 7.9 µM). The MIC (Salmonella enterica) was 4 µg/mL (≈ 7.9 µM), the MIC80 [6] was 8 µg/mL (≈ 15.8 µM) and the MIC80 (Cyberlindnera jadinii) was 4 µg/mL (≈ 7.9 µM). For the same molecule, the MIC80 (Aspergillus flavus) was 4 µg/mL (≈ 7.9 µM), the MIC80 (Saccharomyces cerevisiae) was 4 µg/mL (≈ 7.9 µM) and the MIC80 (Candida albicans) was 2 µg/mL (≈ 3.95 µM).
`O=C(O)c1cn(C2CC2)c2cc(N3CCN(Cc4nc5ccc(F)cc5[nH]4)CC3)c(F)cc2c1=O` showed an MIC (Shigella dysenteriae) of 2 µg/mL (≈ 4.17 µM), an MIC (Staphylococcus aureus [1]) of 2 µg/mL (≈ 4.17 µM) and an MIC (Staphylococcus aureus [2]) of 4 µg/mL (≈ 8.34 µM). The MIC (Micrococcus luteus) was 2 µg/mL (≈ 4.17 µM), the MIC (Bacillus spizizenii) was 0.5 µg/mL (≈ 1.04 µM) and the MIC (Escherichia coli [3]) was 1 µg/mL (≈ 2.09 µM). For the same molecule, the MIC (Escherichia coli [4]) was 4 µg/mL (≈ 8.34 µM), the MIC (Pseudomonas aeruginosa) was 2 µg/mL (≈ 4.17 µM) and the MIC [5] was 1 µg/mL (≈ 2.09 µM). The MIC (Salmonella enterica) was 1 µg/mL (≈ 2.09 µM), the MIC80 [6] was 2 µg/mL (≈ 4.17 µM) and the MIC80 (Cyberlindnera jadinii) was 1 µg/mL (≈ 2.09 µM). It also gave an MIC80 (Aspergillus flavus) of 1 µg/mL (≈ 2.09 µM), an MIC80 (Saccharomyces cerevisiae) of 0.5 µg/mL (≈ 1.04 µM) and an MIC80 (Candida albicans) of 8 µg/mL (≈ 16.7 µM).

From ChEMBL document CHEMBL3769303, “Discovery of membrane active benzimidazole quinolones-based topoisomerase inhibitors as potential DNA-binding antimicrobial agents” (Eur J Med Chem, 2016)
